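Where inhibition never reached the appropriate level, the endpoint shown equals the highest concentration tested. Otherwise, values were interpolated linearly from a five-concentration, 48-hour dose response in 96-well plates. GI50 marks 50% less growth.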 Active and inactive are the calls of the source. Rule as the data show it: active = GI50 up to about 1.1 µM and inactive = higher.
Legend:
Assay in all cases: NCI tumour cell line growth inhibition, 48 h
786-0 = test system: 786-0
A498 = test system: A498
A549 = test system: A549
ACHN = test system: ACHN
BT-549 = test system: BT-549
CAKI-1 = test system: CAKI-1
CCRF-CEM = test system: CCRF-CEM
COLO 205 = test system: COLO 205
DU-145 = test system: DU-145
EKVX = test system: EKVX
HCC 2998 = test system: HCC 2998
HCT-116 = test system: HCT-116
HCT-15 = test system: HCT-15
HL-60 = test system: HL-60
HOP-62 = test system: HOP-62
HT-29 = test system: HT-29
Hs-578T = test system: Hs-578T
IGROV-1 = test system: IGROV-1
K562 = test system: K562
KM12 = test system: KM12
LOX IMVI = test system: LOX IMVI
M14 = test system: M14
MCF7 = test system: MCF7
MDA-MB-231 = test system: MDA-MB-231
MDA-MB-435 = test system: MDA-MB-435
MOLT-4 = test system: MOLT-4
Malme-3M = test system: Malme-3M
NCI-H226 = test system: NCI-H226
NCI-H23 = test system: NCI-H23
NCI-H460 = test system: NCI-H460
NCI-H522 = test system: NCI-H522
NCI/ADR-RES = test system: NCI/ADR-RES
OVCAR-3 = test system: OVCAR-3
OVCAR-4 = test system: OVCAR-4
OVCAR-5 = test system: OVCAR-5
OVCAR-8 = test system: OVCAR-8
RPMI-8226 = test system: RPMI-8226
SF-268 = test system: SF-268
SF-295 = test system: SF-295
SF-539 = test system: SF-539
SK-MEL-28 = test system: SK-MEL-28
SK-MEL-2 = test system: SK-MEL-2
SK-MEL-5 = test system: SK-MEL-5
SK-OV-3 = test system: SK-OV-3
SN12C = test system: SN12C
SNB-19 = test system: SNB-19
SNB-75 = test system: SNB-75
SR = test system: SR
SW-620 = test system: SW-620
T47D = test system: T47D
TK-10 = test system: TK-10
U-251 = test system: U-251
UACC-257 = test system: UACC-257
UACC-62 = test system: UACC-62
UO-31 = test system: UO-31

**Q.** How did the GI50 (786-0) turn out when `O=c1[nH]c2ccc([N+](=O)[O-])c(Cl)c2c2ccccc12` was run?
**A.** Its GI50 is 5.78 µM (inactive).

**Q.** And the GI50 (A498)?
**A.** The GI50 was 13.2 µM (inactive).

**Q.** What about the GI50 (A549) of the same molecule?
**A.** The GI50 was 4.7 µM (inactive).

**Q.** And the GI50 (ACHN)?
**A.** The GI50 was 4.48 µM (inactive).

**Q.** And the GI50 (BT-549)?
**A.** The GI50 was 4.04 µM (inactive).

**Q.** What about the GI50 (CAKI-1) of the same molecule?
**A.** The GI50 was 2.41 µM (inactive).

**Q.** And the GI50 (CCRF-CEM)?
**A.** The GI50 was 0.361 µM (active).

**Q.** What about the GI50 (COLO 205) of the same molecule?
**A.** Its GI50 is 5.18 µM (inactive).

**Q.** And the GI50 (DU-145)?
**A.** Its GI50 is 3.06 µM (inactive).

**Q.** And the GI50 (EKVX)?
**A.** Its GI50 is 5.9 µM (inactive).

**Q.** What about the GI50 (HCC 2998) of the same molecule?
**A.** Its GI50 is 5.46 µM (inactive).

**Q.** And the GI50 (HCT-116)?
**A.** The GI50 was 0.313 µM (active).

**Q.** What about the GI50 (HCT-15) of the same molecule?
**A.** The GI50 was 3.56 µM.

**Q.** And the GI50 (HL-60)?
**A.** Its GI50 is 2.35 µM (inactive).

**Q.** What about the GI50 (HOP-62) of the same molecule?
**A.** The GI50 was 10.8 µM (inactive).

**Q.** What about the GI50 (HT-29) of the same molecule?
**A.** Its GI50 is 0.887 µM (active).

**Q.** And the GI50 (Hs-578T)?
**A.** The GI50 was 3.86 µM (inactive).

**Q.** What about the GI50 (IGROV-1) of the same molecule?
**A.** Its GI50 is 5.87 µM (inactive).

**Q.** And the GI50 (K562)?
**A.** The GI50 was 0.634 µM (active).

**Q.** And the GI50 (KM12)?
**A.** Its GI50 is 0.33 µM (active).

**Q.** And the GI50 (LOX IMVI)?
**A.** Its GI50 is 1.68 µM (inactive).

**Q.** What about the GI50 (M14) of the same molecule?
**A.** The GI50 was 4.81 µM (inactive).

**Q.** What about the GI50 (MCF7) of the same molecule?
**A.** The GI50 was 0.258 µM (active).

**Q.** And the GI50 (MDA-MB-231)?
**A.** Its GI50 is 8.07 µM (inactive).

**Q.** And the GI50 (MDA-MB-435)?
**A.** Its GI50 is 2.1 µM (inactive).

**Q.** What about the GI50 (MOLT-4) of the same molecule?
**A.** The GI50 was 0.91 µM (active).

**Q.** And the GI50 (Malme-3M)?
**A.** Its GI50 is 11.6 µM (inactive).

**Q.** What about the GI50 (NCI-H226) of the same molecule?
**A.** The GI50 was 11.5 µM (inactive).

**Q.** What about the GI50 (NCI-H23) of the same molecule?
**A.** The GI50 was 5.87 µM (inactive).

**Q.** What about the GI50 (NCI-H460) of the same molecule?
**A.** The GI50 was 1.87 µM (inactive).

**Q.** What about the GI50 (NCI-H522) of the same molecule?
**A.** The GI50 was 3.13 µM (inactive).

**Q.** And the GI50 (NCI/ADR-RES)?
**A.** Its GI50 is 4.98 µM (inactive).

**Q.** What about the GI50 (OVCAR-3) of the same molecule?
**A.** The GI50 was 3.72 µM (inactive).

**Q.** What about the GI50 (OVCAR-4) of the same molecule?
**A.** The GI50 was 10.7 µM (inactive).

**Q.** And the GI50 (OVCAR-5)?
**A.** The GI50 was 5.04 µM (inactive).

**Q.** What about the GI50 (OVCAR-8) of the same molecule?
**A.** Its GI50 is 1.29 µM (inactive).

**Q.** And the GI50 (RPMI-8226)?
**A.** The GI50 was 0.586 µM (active).

**Q.** And the GI50 (SF-268)?
**A.** The GI50 was 2.74 µM (inactive).

**Q.** And the GI50 (SF-295)?
**A.** Its GI50 is 2.62 µM (inactive).

**Q.** And the GI50 (SF-539)?
**A.** The GI50 was 1.1 µM (active).

**Q.** And the GI50 (SK-MEL-28)?
**A.** Its GI50 is 11 µM (inactive).

**Q.** What about the GI50 (SK-MEL-2) of the same molecule?
**A.** Its GI50 is 6.1 µM (inactive).

**Q.** And the GI50 (SK-MEL-5)?
**A.** The GI50 was 3.84 µM (inactive).

**Q.** What about the GI50 (SK-OV-3) of the same molecule?
**A.** Its GI50 is 1.66 µM (inactive).

**Q.** What about the GI50 (SN12C) of the same molecule?
**A.** The GI50 was 2.58 µM (inactive).

**Q.** And the GI50 (SNB-19)?
**A.** Its GI50 is 1.91 µM (inactive).

**Q.** What about the GI50 (SNB-75) of the same molecule?
**A.** Its GI50 is 9.04 µM (inactive).

**Q.** And the GI50 (SR)?
**A.** The GI50 was 1.85 µM (inactive).

**Q.** What about the GI50 (SW-620) of the same molecule?
**A.** The GI50 was 1.58 µM (inactive).

**Q.** What about the GI50 (T47D) of the same molecule?
**A.** Its GI50 is 19.8 µM (inactive).

**Q.** And the GI50 (TK-10)?
**A.** The GI50 was 1.37 µM (inactive).

**Q.** And the GI50 (U-251)?
**A.** Its GI50 is 4.43 µM (inactive).

**Q.** And the GI50 (UACC-257)?
**A.** The GI50 was 2.42 µM (inactive).

**Q.** And the GI50 (UACC-62)?
**A.** Its GI50 is 3.79 µM (inactive).

**Q.** What about the GI50 (UO-31) of the same molecule?
**A.** Its GI50 is 9.33 µM (inactive).

Reference: ChEMBL document CHEMBL1201862, “PubChem BioAssay data set” (2004)
